Experimental data published in the supplement of paper PMC10307832.

How the values were obtained:
Assay in all cases: relative viability (nuclei count vs DMSO), 5 days (fraction); higher = more cells survive
XMD14-99 = compound: CN1CCN(CC1)C2=CC(=C(C=C2)NC3=NC(=C(S3)C(=O)C4=C(C=CC=C4Cl)Cl)N)OC [XMD14-99]
Summary of the method: (§1)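 Lung cancer cell lines in 1536-well plates were kept overnight at 37 °C, then pinned with five library-drug doses (not always all listed) spaced by √10 on vehicle-anchored plates. After 5 days without medium change, cells were fixed, permeabilised and Hoechst-stained in one step, imaged at 4×, and nuclei were counted with MetaXpress. Viability is treated-well nuclei divided by vehicle-well nuclei, taken as the median over plates. Plates passed only with control CV below 25% and at least one doubling.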

AZD1208 = compound: N[C@@H]1CCCN(c2c(/C=C3\SC(=O)NC3=O)cccc2-c2ccccc2)C1 [AZD1208]
Summary of the method: as §1

XMD14-99 + Decitabine = compound: CN1CCN(CC1)C2=CC(=C(C=C2)NC3=NC(=C(S3)C(=O)C4=C(C=CC=C4Cl)Cl)N)OC [XMD14-99] + Nc1ncn([C@H]2C[C@H](O)[C@@H](CO)O2)c(=O)n1 [Decitabine] (partner 2 µM)
Summary of the method: (§2)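 Lung cancer cell lines were pin-tool dosed in 1536-well plates on the day after seeding, with either a lone drug or a fixed anchor-drug dose plus five library-drug doses (not always all listed) in √10 steps. Nuclei were counted on 4× images after 5 days. Relative viability is the ratio of treated-well to vehicle-well nuclei counts, with each value a median of duplicate plates.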

AZD1208 + Linsitinib = compound: N[C@@H]1CCCN(c2c(/C=C3\SC(=O)NC3=O)cccc2-c2ccccc2)C1 [AZD1208] + C[C@]1(O)C[C@@H](c2nc(-c3ccc4ccc(-c5ccccc5)nc4c3)c3c(N)nccn32)C1 [Linsitinib] (partner 1 µM)
Summary of the method: as §2

## UMC-11
XMD14-99; 0.08 µM
  relative viability: 0.968
XMD14-99; 0.8 µM
  relative viability: 1.02
XMD14-99; 2.53 µM
  relative viability: 1
XMD14-99; 8 µM
  relative viability: 0.83
AZD1208; 0.08 µM
  relative viability: 0.85
AZD1208; 0.253 µM
  relative viability: 0.851
AZD1208; 0.8 µM
  relative viability: 0.713
AZD1208; 2.53 µM
  relative viability: 0.67
AZD1208; 8 µM
  relative viability: 0.511
XMD14-99 + Decitabine; first compound 0.08 µM
  relative viability: 0.573
XMD14-99 + Decitabine; first compound 0.8 µM
  relative viability: 0.667
XMD14-99 + Decitabine; first compound 2.53 µM
  relative viability: 0.626
XMD14-99 + Decitabine; first compound 8 µM
  relative viability: 0.589
AZD1208 + Linsitinib; first compound 0.08 µM
  relative viability: 0.909
AZD1208 + Linsitinib; first compound 0.253 µM
  relative viability: 0.767
AZD1208 + Linsitinib; first compound 0.8 µM
  relative viability: 0.772
AZD1208 + Linsitinib; first compound 2.53 µM
  relative viability: 0.67
AZD1208 + Linsitinib; first compound 8 µM
  relative viability: 0.558
